How the values were obtained:
[1] = test system: 0.6 N HCl-induced gastric lesions; assay: Gastric cytoprotection (0.6 N HCl-induced gastric lesions); format: in vivo, Male Donryu rats; conditions: p.o., an hour before 0.6 N HCl, lesion length
Method: Male Donryu rats, weighing about 200 g, were deprived of food and water for 24 hours. One ml of 0.6N HCl solution was given orally and the animals were killed an hour later. […] The length (mm) of each gastric lesion was measured under a dissecting microscope, summed, and used as an index for evaluation. Drugs were orally given an hour before 0.6 N HCl solution treatment.

[2] = test system: Gastric secretion (acid output); assay: Gastric antisecretion (Acute fistula method, histamine-stimulated, pylorus-ligated rats); format: in vivo, Male Donryu rats; conditions: i.d., histamine 10 mg/kg i.m.
Method: Male Donryu rats, weighing about 200 g, were fasted for 24 hours before the experiment. […] The gastric cannula was implanted in the forestomach (Acute fistula method). Gastric secretion from cannula was collected into test tubes every one hour and the acid output was titrated. Histamine (10 mg/kg) was intramuscularly given after the first collection of gastric juice. Drugs were intraduodenally given after the second collection of the gastric juice.

Histamine H2-receptor = target: T1, Histamine H2-receptor (Cavia porcellus, UniProt P47747); assay: Histamine H2-receptor antagonism (isolated right atrium, positive chronotropic effect of histamine); design: species or system Male Hartley guinea-pigs; conditions: guinea-pig right atrium, 32±1° C., drugs added 5 minutes before histamine; read-out: pA2 (converted)
T1 construct: The right atrium was dissected and suspended at 0.5 g tension in a 10 ml organ bath; from tissue; host or cells: isolated right atrium of male Hartley guinea-pigs
Method: Male Hartley guinea-pigs, weighing between 300 and 400 g, were used in the experiment. The right atrium was dissected and suspended at 0.5 g tension in a 10 ml organ bath containing Krebs-Henseleit's solution, kept at 32±1° C. and bubbled with the gas mixture (95 % O2 and 5 % CO2). Contractions were recorded with a force-displacement transducer through a strain gange. […] Drugs were added into the organ bath 5 minutes before histamine treatment.

T1 sequence (P47747 whole entry): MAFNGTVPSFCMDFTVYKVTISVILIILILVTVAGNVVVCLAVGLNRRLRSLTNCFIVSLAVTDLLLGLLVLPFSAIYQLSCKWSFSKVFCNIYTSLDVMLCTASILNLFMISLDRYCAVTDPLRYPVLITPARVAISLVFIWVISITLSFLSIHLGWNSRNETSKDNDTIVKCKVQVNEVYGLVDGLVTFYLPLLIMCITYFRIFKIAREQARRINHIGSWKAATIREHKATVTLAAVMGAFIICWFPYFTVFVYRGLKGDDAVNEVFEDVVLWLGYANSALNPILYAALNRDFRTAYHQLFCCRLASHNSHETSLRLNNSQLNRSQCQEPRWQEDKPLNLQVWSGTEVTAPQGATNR

| Kb (Histamine H2-receptor) [nM] | Structure (SMILES) | Inhibition (%) ([2]; Dose 25 mg/kg) | Inhibition (%) ([1]; Dose 25 mg/kg) | Inhibition (%) ([1]; Dose 50 mg/kg) | Inhibition (%) ([1]; Dose 6 mg/kg) | Inhibition (%) ([2]; Dose 5 mg/kg) | also measured |
| --- | --- | --- | --- | --- | --- | --- | --- |
|  | CN/C(=N/CCSCc1nc[nH]c1C)NC#N [Cimetidine, reference compound] | 80.0 |  |  |  |  | Inhibition (%) ([1]; Dose 100 mg/kg): 22.0%; Inhibition (%) ([2]; Dose 12.5 mg/kg): 51.9%; Inhibition (%) ([2]; Dose 50 mg/kg): 100.0% |
| 263 | COc1ccc(NC(=O)NCCCOc2cccc(CN3CCCCC3)c2)cc1 [Example 1, N-(4-Methoxyphenyl)-N'-[3-(3-piperidinomethylphenoxy)propyl]urea] | 98.5 | 30.1 | 45.1 |  |  | Inhibition (%) ([1]; Dose 100 mg/kg): 67.4%; Inhibition (%) ([2]; Dose 12.5 mg/kg): 70.7% |
| 41.7 | CCCNC(=O)NCCCOc1cccc(CN2CCCCC2)c1 [Example 8] |  |  |  | 55.4 |  | Inhibition (%) ([1]; Dose 1 mg/kg): 26.4%; Inhibition (%) ([1]; Dose 16 mg/kg): 67.4%; Inhibition (%) ([2]; Dose 1 mg/kg): 49.5%; Inhibition (%) ([2]; Dose 3 mg/kg): 77.5%; Inhibition (%) ([2]; Dose 6 mg/kg): 81.3% |
| 66.1 | CCNC(=O)NCCCOc1cccc(CN2CCCCC2)c1 [Example 16, N-Ethyl-N'-[3-(3-piperidinomethylphenoxy)propyl]urea] |  | 78.0 | 89.4 | 52.6 | 49.5 | Inhibition (%) ([2]; Dose 10 mg/kg): 77.2% |
| 35.5 | CNC(=O)NC/C=C\COc1cccc(CN2CCCCC2)c1 [Example 29] |  | 73.8 |  |  | 80.8 | Inhibition (%) ([1]; Dose 5 mg/kg): 49.3%; Inhibition (%) ([2]; Dose 3 mg/kg): 39.1% |
| 251 | CCOc1ccc(NC(=O)NCCCOc2cccc(CN3CCCCC3)c2)cc1 [Example 51, N-(4-Ethoxyphenyl)-N'-[3-(3-piperidinomethylphenoxy)propyl]urea] | 97.1 |  | 63.4 |  |  | Inhibition (%) ([2]; Dose 1 mg/kg): 29.0%; Inhibition (%) ([2]; Dose 6 mg/kg): 52.7% |
| 27.5 | CC(C)NC(=O)NCCCOc1cccc(CN2CCCCC2)c1 [Example 54] |  | 73.0 | 70.1 | 36.1 | 68.2 | Inhibition (%) ([2]; Dose 2 mg/kg): 16.1%; Inhibition (%) ([2]; Dose 10 mg/kg): 78.8% |

From patent publication US4952591A, “Anti-ulcer urea derivatives” (Kyorin Pharmaceutical Co., Ltd., priority 1987, dated 1990)
